System: Escherichia coli strain ATCC25922
Assay: standard microdilution assay to determine minimum inhibitory concentrations (MICs)
Format: cell-based
Conditions: for E. coli ATCC25922 MIC: Escherichia coli strain ATCC25922, microdilution; for MIC: Escherichia coli, ATCC25922, Escherichia coli strain ATCC25922, microdilution, read-out: E. coli ATCC25922 MIC
In short: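 Broth microdilution MIC against E. coli ATCC25922, following CLSI protocols, typically in a 100 microliter final volume. Results reported as +/− relative to a 16 micrograms/ml cutoff.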

Compound | E. coli ATCC25922 MIC | MIC [µg/mL]
CC(C)(CN)COc1cccc(-c2cc3cn(-c4ccc(CNCCCNC(=N)N)cc4)c(=O)nc3[nH]2)c1 [Compound 1327] | + (a “+” indicates that the compound has an MIC value of 16 micrograms/ml or less) | 
COc1cc(-n2cc3cc(-c4cccc(OCC(C)(C)CN)c4)[nH]c3nc2=O)ccc1CNCCCNC(=N)N [Compound 1328] | + (a “+” indicates that the compound has an MIC value of 16 micrograms/ml or less) | 
N=C(N)NCCCNCc1ccc(C2N=c3cc(C4CNCCO4)[nH]c3=NC2=O)cc1 (centres unmarked) [Compound 1329] |  | > 16
N=C(N)NCCCNCc1ccc(-n2cc3cc(-c4ccc(S(=O)(=O)CCCNC5CCNC5)cc4)[nH]c3nc2=O)cc1 (centres unmarked) [Compound 1330] | + (a “+” indicates that the compound has an MIC value of 16 micrograms/ml or less) | 
N=C(N)NCCCNCc1ccc(C2N=c3cc(-c4cccc(O)c4)[nH]c3=NC2=O)cc1 (centres unmarked) [Compound 1334] |  | < 16
N=C(N)NCCCNCc1ccc(-n2cc3cc(C4CN(C(=N)N)CCO4)[nH]c3nc2=O)cc1 (centres unmarked) [Compound 1335] |  | < 16
N=C(N)NCCCNC(=O)c1ccc(-n2cc3cc(-c4ccc(S(=O)(=O)CCCNC5CCNC5)cc4)[nH]c3nc2=O)cc1 (centres unmarked) [Compound 1350] | + (a “+” indicates that the compound has an MIC value of 16 micrograms/ml or less) | 
CNCc1ccc(-n2cc3cc(-c4ccc(S(=O)(=O)N(CCCc5cn[nH]c5)C5CCNCC5)cc4)[nH]c3nc2=O)cc1 [Compound 1351] | − (a “−” indicates that the compound has an MIC value greater than 16 micrograms/ml) | 
CC(C)(CN)COc1cccc(-c2cc3cn(-c4ccc(CNCCCNC(=N)N)c(F)c4)c(=O)nc3[nH]2)c1 [Compound 1361] | + (a “+” indicates that the compound has an MIC value of 16 micrograms/ml or less) | 
N=C(N)NCCCNCc1ccc(-n2cc3cc(-c4cccc(CCCCN)c4)[nH]c3nc2=O)cc1 [Compound 1380] | + (a “+” indicates that the compound has an MIC value of 16 micrograms/ml or less) | 
N=C(N)NCCCNCc1ccc(-n2cc3cc(C4CN(CCCCN)CCO4)[nH]c3nc2=O)cc1 (centres unmarked) [Compound 1381] | + (a “+” indicates that the compound has an MIC value of 16 micrograms/ml or less) | 
N=C(N)NCCCNCc1ccc(-n2cc3cc(-c4cccc(OCC(F)CN)c4)[nH]c3nc2=O)cc1 (centres unmarked) [Compound 1390] | + (a “+” indicates that the compound has an MIC value of 16 micrograms/ml or less) | 
COc1cc(-n2cc3cc(-c4cccc(OCC(F)CN)c4)[nH]c3nc2=O)ccc1CNCCCNC(=N)N (centres unmarked) [Compound 1391] | + (a “+” indicates that the compound has an MIC value of 16 micrograms/ml or less) | 
N=C(N)NCCCNCc1ccc(-n2cc3cc(CCNC4CNC4)[nH]c3nc2=O)cc1 [Compound 1398] | + (a “+” indicates that the compound has an MIC value of 16 micrograms/ml or less) | 
N=C(N)NCCCNC(=O)c1ccc(-n2cc3cc(-c4cccc(OC[C@@H](O)CN)c4)[nH]c3nc2=O)cc1 [Compound 1399] | + (a “+” indicates that the compound has an MIC value of 16 micrograms/ml or less) | 
COC(CN)COc1cccc(-c2cc3cn(-c4ccc(CNCCCNC(=N)N)cc4)c(=O)nc3[nH]2)c1 (centres unmarked) [Compound 1400] | + (a “+” indicates that the compound has an MIC value of 16 micrograms/ml or less) | 

Compound | E. coli ATCC25922 MIC | MIC [µg/mL]
N=C(N)NCCCNCc1ccc(-n2cc3cc(-c4cccc(OCC(F)(F)CN)c4)[nH]c3nc2=O)cc1 [Compound 1404] | − (a “−” indicates that the compound has an MIC value greater than 16 micrograms/ml) | 
N=C(N)NCCCNCc1ccc(-n2cc3cc(-c4cccc(SCCCN)c4)[nH]c3nc2=O)cc1 [Compound 1405] | + (a “+” indicates that the compound has an MIC value of 16 micrograms/ml or less) | 
N=C(N)NCCCNCc1ccc(-n2cc3cc(C4CCCN(C(=O)CCCN)C4)[nH]c3nc2=O)cc1 (centres unmarked) [Compound 1406] | + (a “+” indicates that the compound has an MIC value of 16 micrograms/ml or less) | 
N=C(N)NCCCNC(=O)c1ccc(-n2cc3cc(CCNC4CNC4)[nH]c3nc2=O)cc1 [Compound 1408] | − (a “−” indicates that the compound has an MIC value greater than 16 micrograms/ml) | 
CC(C)(N)CCOc1cccc(-c2cc3cn(-c4ccc(CNCCCNC(=N)N)cc4)c(=O)nc3[nH]2)c1 [Compound 1410] | + (a “+” indicates that the compound has an MIC value of 16 micrograms/ml or less) | 
N=C(N)NCCCNCc1ccc(-n2cc3cc(-c4ccc(C(=O)NC5CNC5)cc4)[nH]c3nc2=O)cc1 [Compound 1412] | + (a “+” indicates that the compound has an MIC value of 16 micrograms/ml or less) | 
N=C(N)NCCCNCc1ccc(-n2cc3cc(-c4cccc(OCC5(CN)CC5)c4)[nH]c3nc2=O)cc1 [Compound 1413] | + (a “+” indicates that the compound has an MIC value of 16 micrograms/ml or less) | 
CC(CCN)Oc1cccc(-c2cc3cn(-c4ccc(CNCCCNC(=N)N)cc4)c(=O)nc3[nH]2)c1 (centres unmarked) [Compound 1414] | + (a “+” indicates that the compound has an MIC value of 16 micrograms/ml or less) | 
N=C(N)NCCC(NCc1ccc(-n2cc3cc(-c4ccc(S(=O)(=O)NC5CNC5)cc4)[nH]c3nc2=O)cc1)C(F)(F)F (centres unmarked) [Compound 1415] | + (a “+” indicates that the compound has an MIC value of 16 micrograms/ml or less) | 
N=C(N)NCC(O)CNCc1ccc(-n2cc3cc(-c4ccc(S(=O)(=O)NC5CNC5)cc4)[nH]c3nc2=O)cc1 (centres unmarked) [Compound 1416] | + (a “+” indicates that the compound has an MIC value of 16 micrograms/ml or less) | 
N=C(N)NCC(O)CNCc1ccc(-n2cc3cc(-c4ccc(S(=O)(=O)NC5CN(C(=N)N)C5)cc4)[nH]c3nc2=O)cc1 (centres unmarked) [Compound 1417] | + (a “+” indicates that the compound has an MIC value of 16 micrograms/ml or less) | 
N=C(N)NCCCNCc1ccc(-n2cc3cc(-c4cccc(OCC5CNC5)c4)[nH]c3nc2=O)cc1 [Compound 1418] | + (a “+” indicates that the compound has an MIC value of 16 micrograms/ml or less) | 
N=C(N)NCCCNCc1ccc(-n2cc3cc(C4CCCN(CC(O)CN)C4)[nH]c3nc2=O)cc1 (centres unmarked) [Compound 1422] | + (a “+” indicates that the compound has an MIC value of 16 micrograms/ml or less) | 
N=C(N)NCCCNCc1ccc(-n2cc3cc(-c4cccc(OC[C@@H]5CCNC5)c4)[nH]c3nc2=O)cc1 [Compound 1423] | + (a “+” indicates that the compound has an MIC value of 16 micrograms/ml or less) | 
CO[C@H](CN)COc1cccc(-c2cc3cn(-c4ccc(CN)cc4)c(=O)nc3[nH]2)c1 [Compound 1428] |  | > 16
N=C(N)NCCCNCc1ccc(-n2cc3cc(-c4ccc(C(NC5CNC5)C(F)(F)F)cc4)[nH]c3nc2=O)cc1 (centres unmarked) [Compound 1431] | + (a “+” indicates that the compound has an MIC value of 16 micrograms/ml or less) | 
